Experimental data reported in patent US12729407B2, “Mucins and isoforms thereof in diseases characterized by barrier dysfunction” (priority 2020, dated 2026).
Read-outs that look alike come from different tables or passages of the source.

System: Calu3 cells infected with SARS-CoV-2
Type: cell-based, human
[1] = Calu3 cells, SARS-CoV-2 0.1 MOI 2 h, then drug 48 h, vs untreated infected cells

Row | Molecule | MUC1 mRNA expression | MUC4 mRNA expression | MUC5AC mRNA expression | MUC5B mRNA expression | MUC13 mRNA expression | MUC21 mRNA expression | mucin hypersecretion (mucins of the signature: MUC13, MUC21, MUC16 and MUC1) (concluding remark on the Calu3 drug screen) | MUC1 mRNA expression [1] | MUC4 mRNA expression [1] | MUC21 mRNA expression [1]
1 | NC(=O)c1nc(F)c[nH]c1=O [favipiravir] | increase | decrease | decrease | decrease | decrease | decrease | suppress mucin hypersecretion |  |  | 
2 | Tocilizumab [toculizumab] |  |  |  |  |  |  |  | significantly reduce | significantly reduce | significantly reduce
